Source: patent US20260085053A1, “BENZOFURAN DERIVATIVES AS SIK INHIBITORS AND THE USE THEREOF” (BEONE MEDICINES I GMBH, priority 2023, published 2026)

Legend:
[1] = target: T1, SIK3 kinase (aa59-365, Thermo Fisher) (Homo sapiens, UniProt Q9Y2K2); assay: Biochemical activities determination for SIK3 protein (TR-FRET); settings: 125 uM ATP, 0.5 μM STK1 substrate
T1 construct: SIK3 kinase (aa59-365, Thermo Fisher); purchased Thermo Fisher
In short: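 SIK3 (aa59-365) was preincubated with compound (0-10 μM) for 60 min at room temperature in Tris buffer pH 7.5. The reaction was then started with 125 uM ATP and 0.5 μM STK1 substrate and run 180 min at room temperature. Phospho-substrate was detected by HTRF (665/620 nm ratio), and IC50 came from a four-parameter logistic fit.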

[2] = target: T2, SIK1 kinase (aa1-303, Thermo Fisher) (Homo sapiens, UniProt P57059); assay: Biochemical activities determination for SIK1 protein (TR-FRET); settings: 110 uM ATP, 0.5 μM STK1 substrate
T2 construct: SIK1 kinase (aa1-303, Thermo Fisher); purchased Thermo Fisher
T2 sequence (P57059 1-303): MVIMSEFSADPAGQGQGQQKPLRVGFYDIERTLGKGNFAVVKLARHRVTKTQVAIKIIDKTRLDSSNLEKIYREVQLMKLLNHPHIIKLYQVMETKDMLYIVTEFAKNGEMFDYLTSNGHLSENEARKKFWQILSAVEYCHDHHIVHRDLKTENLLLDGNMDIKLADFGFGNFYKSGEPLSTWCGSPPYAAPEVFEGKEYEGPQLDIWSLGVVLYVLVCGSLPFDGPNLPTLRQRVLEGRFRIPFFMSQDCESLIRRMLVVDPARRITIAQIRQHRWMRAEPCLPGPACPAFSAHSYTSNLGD
In short: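 TR-FRET kinase assay with SIK1 (aa1-303), 110 uM ATP, 0.5 μM STK1 substrate and 0-10 μM compound in Tris pH 7.5 with MgCl2, EGTA, DTT, Triton X-100. Enzyme preincubated with compound 60 min, reaction 180 min at room temperature; 665/620 nm ratio after overnight detection; IC50 from four-parameter logistic fit.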

[3] = target: T3, SIK2 kinase (full length, Thermo Fisher) (Homo sapiens, UniProt Q9H0K1); assay: Biochemical activities determination for SIK2 protein (TR-FRET); settings: 80 uM ATP, 0.5 μM substrate
T3 construct: SIK2 kinase (full length, Thermo Fisher); purchased Thermo Fisher
T3 sequence (Q9H0K1 whole entry): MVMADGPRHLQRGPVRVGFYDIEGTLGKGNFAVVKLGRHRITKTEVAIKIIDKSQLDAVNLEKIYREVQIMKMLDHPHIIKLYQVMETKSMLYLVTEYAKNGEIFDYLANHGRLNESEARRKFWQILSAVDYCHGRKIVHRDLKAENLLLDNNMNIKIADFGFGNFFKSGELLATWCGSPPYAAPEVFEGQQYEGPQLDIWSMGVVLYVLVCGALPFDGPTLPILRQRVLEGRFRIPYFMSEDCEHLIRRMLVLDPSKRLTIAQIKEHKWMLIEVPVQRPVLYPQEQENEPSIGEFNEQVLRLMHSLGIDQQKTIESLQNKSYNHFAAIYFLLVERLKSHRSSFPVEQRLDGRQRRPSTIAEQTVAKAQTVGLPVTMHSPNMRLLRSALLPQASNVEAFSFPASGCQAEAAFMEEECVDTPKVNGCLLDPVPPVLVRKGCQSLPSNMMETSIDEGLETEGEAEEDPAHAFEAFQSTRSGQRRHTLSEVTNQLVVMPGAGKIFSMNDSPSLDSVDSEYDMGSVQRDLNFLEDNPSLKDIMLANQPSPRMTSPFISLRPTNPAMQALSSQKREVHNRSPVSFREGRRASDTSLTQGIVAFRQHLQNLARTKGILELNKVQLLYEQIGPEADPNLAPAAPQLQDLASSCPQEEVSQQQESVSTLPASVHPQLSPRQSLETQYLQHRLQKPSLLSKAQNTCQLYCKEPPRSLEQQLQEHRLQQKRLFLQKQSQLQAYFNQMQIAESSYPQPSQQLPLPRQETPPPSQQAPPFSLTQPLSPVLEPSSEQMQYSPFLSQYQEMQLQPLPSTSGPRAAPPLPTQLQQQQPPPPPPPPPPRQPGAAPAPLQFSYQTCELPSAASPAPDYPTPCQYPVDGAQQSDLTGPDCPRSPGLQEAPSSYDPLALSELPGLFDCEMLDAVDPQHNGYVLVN
In short: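 Full-length SIK2 preincubated 60 min with 0–10 μM compound, then reacted 180 min at room temperature with 80 uM ATP and 0.5 μM biotinylated substrate (pH 7.5 Tris/MgCl2 buffer). Phosphorylation detected by TR-FRET (665/620 nm ratio, cryptate antibody/streptavidin-XL665) after overnight incubation; IC50 from four-parameter logistic fit.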

T1 sequence (Q9Y2K2 59-365): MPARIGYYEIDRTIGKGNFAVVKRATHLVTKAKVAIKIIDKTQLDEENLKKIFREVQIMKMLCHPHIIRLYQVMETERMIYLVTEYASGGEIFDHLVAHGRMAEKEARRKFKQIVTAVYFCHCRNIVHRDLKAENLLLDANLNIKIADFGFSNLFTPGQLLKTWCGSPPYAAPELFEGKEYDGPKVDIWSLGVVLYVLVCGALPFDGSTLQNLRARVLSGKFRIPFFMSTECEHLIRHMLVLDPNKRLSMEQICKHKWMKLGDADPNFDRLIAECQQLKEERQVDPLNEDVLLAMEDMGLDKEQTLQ

Compound	IC50 [1] [nM]	IC50 [2] [nM]	IC50 [3] [nM]
COc1cc(-c2coc3cc(OCCCN4CCCC4)ccc23)cc(OC(F)F)c1C(=O)N[C@@H]1C[C@@H]1F [Compound 72, 2-(difluoromethoxy)-N-((1R,2S)-2-fluorocyclopropyl)-6-methoxy-4-(6-(3-(pyrrolidin-1-yl)propoxy)benzofuran-3-yl)benzamide]	31	461	6
COc1cc(-c2coc3cc(-c4cnn(C)c4)ccc23)cc2c1C(=O)N(CC(F)(F)F)CC2(C)C [Compound 33, 8-methoxy-4,4-dimethyl-6-(6-(1-methyl-1H-pyrazol-4-yl)benzofuran-3-yl)-2-(2,2,2-trifluoroethyl)-3,4-dihydroisoquinolin-1 (2H)-one]	156	9100	82
COc1cc(-c2coc3cc(-c4cn(C)nc4C(F)(F)F)ccc23)cc2c1C(=O)N(CC(F)(F)F)CC2 [Compound 16, 8-methoxy-6-(6-(1-methyl-3-(trifluoromethyl)-1H-pyrazol-4-yl)benzofuran-3-yl)-2-(2,2,2-trifluoroethyl)-3,4-dihydroisoquinolin-1 (2H)-one]	5840	> 10000	3350
COc1cc(-c2coc3cc(-c4cnn(C)c4)ccc23)cc2c1C(=O)N(Cc1ccncc1)CC2 [Compound 30, 8-methoxy-6-(6-(1-methyl-1H-pyrazol-4-yl)benzofuran-3-yl)-2-(pyridin-4-ylmethyl)-3,4-dihydroisoquinolin-1 (2H)-one]	1110	2610	531
COc1cc(-c2coc3cc(OCCN4CC[C@H](C)C4)ccc23)cc(OC(F)F)c1C(=O)N[C@@H]1C[C@@H]1F [Compound 81, 2-(difluoromethoxy)-N-((1R,2S)-2-fluorocyclopropyl)-6-methoxy-4-(6-(2-((S)-3-methylpyrrolidin-1-yl)ethoxy)benzofuran-3-yl)benzamide]	32	1890	11
O=C1c2c(cc(-c3coc4cc(OCCN5CCCC5)ccc34)cc2OC(F)F)CCN1CC(F)(F)F [Compound 63, 8-(difluoromethoxy)-6-(6-(2-(pyrrolidin-1-yl)ethoxy)benzofuran-3-yl)-2-(2,2,2-trifluoroethyl)-3,4-dihydroisoquinolin-1 (2H)-one]	300	> 10000	67
COc1cc(-c2coc3cc(OCCN4CCCCC4)ccc23)cc(OC(F)F)c1C(=O)N[C@@H]1C[C@@H]1F [Compound 70, 2-(difluoromethoxy)-N-((1R,2S)-2-fluorocyclopropyl)-6-methoxy-4-(6-(2-(piperidin-1-yl)ethoxy)benzofuran-3-yl)benzamide]	42	2950	14
CN1CCC(n2cc(-c3ccc4c(-c5cc6c(c(OC(F)F)c5)C(=O)N(CC#N)CC6)coc4c3)cn2)CC1 [Compound 55, 2-(8-(difluoromethoxy)-6-(6-(1-(1-methylpiperidin-4-yl)-1H-pyrazol-4-yl)benzofuran-3-yl)-1-oxo-3,4-dihydroisoquinolin-2 (1H)-yl) acetonitrile]	18	301	3.9
COc1cc(-c2coc3cc(-c4cnn(C)c4)ccc23)cc2c1C(=O)N(CC(F)(F)F)[C@H](C)C2 [Compound 29B, (R)-8-methoxy-3-methyl-6-(6-(1-methyl-1H-pyrazol-4-yl)benzofuran-3-yl)-2-(2,2,2-trifluoroethyl)-3,4-dihydroisoquinolin-1 (2H)-one]	374	5980	178
CN1CC(n2cc(-c3ccc4c(-c5cc6c(c(OC(F)F)c5)C(=O)N(CC#N)CC6)coc4c3)cn2)C1 [Compound 57, 2-(8-(difluoromethoxy)-6-(6-(1-(1-methylazetidin-3-yl)-1H-pyrazol-4-yl)benzofuran-3-yl)-1-oxo-3,4-dihydroisoquinolin-2 (1H)-yl) acetonitrile]	17	405	2.7

Now from value to compound:

IC50 [1] [nM]	IC50 [2] [nM]	IC50 [3] [nM]	Compound
19	303	10	COc1cc(-c2coc3cc(-c4cnn(C)c4)ccc23)cc2c1C(=O)N(CC(F)(F)F)CC2 [Example 1, 8-methoxy-6-(6-(1-methyl-1H-pyrazol-4-yl)benzofuran-3-yl)-2-(2,2,2-trifluoroethyl)-3,4-dihydroisoquinolin-1 (2H)-one]
15	124	13	COc1cc(-c2coc3cc(-c4cnn(C)c4)ccc23)cc(OC(F)F)c1C(=O)NC1CC1 [Compound 132, N-cyclopropyl-2-(difluoromethoxy)-6-methoxy-4-(6-(1-methyl-1H-pyrazol-4-yl)benzofuran-3-yl)benzamide]
289	8350	85	COc1cc(-c2coc3cc(OCCN4CCCC4)ccc23)cc(OC(F)F)c1C(=O)N[C@@H]1C[C@H]1F [Compound 97, 2-(difluoromethoxy)-N-((1R,2R)-2-fluorocyclopropyl)-6-methoxy-4-(6-(2-(pyrrolidin-1-yl)ethoxy)benzofuran-3-yl)benzamide]
28	375	15	CCn1cc(-c2ccc3c(-c4cc5c(c(OC)c4)C(=O)N(CC(F)(F)F)CC5)coc3c2)cn1 [Example 2, 6-(6-(1-ethyl-1H-pyrazol-4-yl)benzofuran-3-yl)-8-methoxy-2-(2,2,2-trifluoroethyl)-3,4-dihydroisoquinolin-1 (2H)-one]
80	3590	31	COc1cc(-c2coc3cc(OCCN4CCCC4)ccc23)cc(OC(F)F)c1C(=O)NC1CC1(F)F (stereo not drawn) [Compound 100, N-(2,2-difluorocyclopropyl)-2-(difluoromethoxy)-6-methoxy-4-(6-(2-(pyrrolidin-1-yl)ethoxy)benzofuran-3-yl)benzamide]
117	> 10000	507	COc1cc(-c2coc3cc(OCCN4CCCC4C(F)(F)F)ccc23)cc(OC(F)F)c1C(=O)N[C@@H]1C[C@@H]1F (stereo partly drawn) [Compound 95, 2-(difluoromethoxy)-N-((1R,2S)-2-fluorocyclopropyl)-6-methoxy-4-(6-(2-(2-(trifluoromethyl)pyrrolidin-1-yl)ethoxy)benzofuran-3-yl)benzamide]
74	2500	31	COc1cc(-c2coc3cc(OCCN4CCCC[C@@H]4C)ccc23)cc(OC(F)F)c1C(=O)N[C@@H]1C[C@@H]1F [Compound 91, 2-(difluoromethoxy)-N-((1R,2S)-2-fluorocyclopropyl)-6-methoxy-4-(6-(2-((S)-2-methylpiperidin-1-yl)ethoxy)benzofuran-3-yl)benzamide]
525	> 10000	128	COc1cc(-c2coc3cc(OCCN4CCCC4)ccc23)cc(OC(F)F)c1C(=O)N[C@H]1C[C@H]1F [Compound 98, 2-(difluoromethoxy)-N-((1S,2R)-2-fluorocyclopropyl)-6-methoxy-4-(6-(2-(pyrrolidin-1-yl)ethoxy)benzofuran-3-yl)benzamide]
199	> 10000	199	COc1cc(-c2coc3cc(-c4ccc(C)nn4)ccc23)cc(OC(F)F)c1C(=O)NC1CC1 [Compound 133, N-cyclopropyl-2-(difluoromethoxy)-6-methoxy-4-(6-(6-methylpyridazin-3-yl)benzofuran-3-yl)benzamide]
53	728	37	COc1cc(-c2coc3cc(-c4cnn(C5CC5)c4)ccc23)cc2c1C(=O)N(CC(F)(F)F)CC2 [Example 4, 6-(6-(1-cyclopropyl-1H-pyrazol-4-yl)benzofuran-3-yl)-8-methoxy-2-(2,2,2-trifluoroethyl)-3,4-dihydroisoquinolin-1 (2H)-one]
> 10000	> 10000	8970	O=C(NC1CC1)c1c(OC(F)F)cc(-c2coc3cc(OCCN4CCCC4)ccc23)cc1O[C@H]1CC[C@H](O)CC1 [Compound 101, N-cyclopropyl-2-(difluoromethoxy)-6-(((1r,4r)-4-hydroxycyclohexyl)oxy)-4-(6-(2-(pyrrolidin-1-yl)ethoxy)benzofuran-3-yl)benzamide]
> 10000	> 10000	1120	CN1CC[C@H](COc2cc(-c3coc4cc(OCCN5CCCC5)ccc34)cc(OC(F)F)c2C(=O)NC2CC2)C1 [Compound 116, (S)—N-cyclopropyl-2-(difluoromethoxy)-6-((1-methylpyrrolidin-3-yl)methoxy)-4-(6-(2-(pyrrolidin-1-yl)ethoxy)benzofuran-3-yl)benzamide]
452	7180	136	CCOc1cc(-c2coc3cc(OCCN4CCCC4)ccc23)cc(OC(F)F)c1C(=O)NC1CC1 [Compound 119, N-cyclopropyl-2-(difluoromethoxy)-6-ethoxy-4-(6-(2-(pyrrolidin-1-yl)ethoxy)benzofuran-3-yl)benzamide]
